Measured values taken from patent US7732487B2, “Method for treating a disease or condition responsive to opening of C1C-2 channel” (priority 2001, dated 2010).
Marks after values point to notes of the source that are not given here.

How the values were obtained:
male Wistar rats [1] = assay: Amount of bile and chloride ion concentration in bile in rats after repeated oral dosing; format: in vivo, rat; settings: 100 μg/kg oral three times a day for seven days, Mean ± S.E.
Protocol: Test substance 2: 13,14-dihydro-15-keto-16,16-difluoro-18(S)-methyl-prostaglandin E1, which is a ClC-2 channel opener was used. Test substance 2 of 100 μg/kg was orally administered to male Wistar rats (six weeks old, weight: 180-210 g) three times a day for seven days. The control group received the same amount of the vehicle (0.01% polysorbate 80 and 0.5% ethanol in distilled water). In the following morning of the final administration day (about 17 hours after the final administration), a polyethylene catheter (PE10, Becton Dickinson and Company) was inserted into the rats' common bile duct under ether anesthesia. The rats were placed in a Borrmann's cage and were left for 1 hour to awake from anesthesia. Bile discharged during one hour from one to two hours after the insertion of the catheter was collected to measure the amount of bile. Chloride ion concentration was measured with a chloride counter (CL-7, Hiranuma Sangyo Co., Ltd.). Student's t-test was used in comparing the control group and the group receiving test substance 2. P values less than 0.05 were considered to be statistically significant.

male Wistar rats [2] = assay: Mercuric chloride induced large intestinal ulcer; format: in vivo, rat; settings: for Gross Ulcer Area: 30 min before and 2 and 6 hours after HgCl2, Mean ± S.E.
Protocol: Mercuric chloride (HgCl2) of 4 mg/kg was intramuscularly administered to male Wistar rats (weight: 245-290 g) to induce ulcer in the large intestine. Thirty minutes before, and 2 and 6 hours after the administration of HgCl2, test substance 2 was subcutaneously administered. The control group received a vehicle. Twenty-four hours after the administration of HgCl2, the animals were bled to death under ether anesthesia. After abdominal incision, the upper portion of the ileocecal opening and the upper portion of the anus were ligated, and the large intestine region from the caecum to the rectum was removed. The removed large intestine was fixed with 1% formalin and then dissected, and the major and minor axes of ulcer were measured with a caliper under a stereoscopic microscope. The product of the major axis multiplied by the minor axis was expressed as the ulcer area. Further, the total ulcer area was calculated in each animal, which was expressed as the gross ulcer area.

Beagle dogs = assay: Cardiac output in dog model of cardiac incompetence; format: in vivo; settings: 30 minutes after administration relative to immediately before, Mean ± S.E.
Protocol: Beagle dogs (weight: 8.8-10.3 kg) were used, and under thiopental sodium and α-chloralose anesthesia, their cardiac output was guided from a FJ probe equipped on the aortic arch via a rectangular wave electromagnetic blood flow meter (MFV-3100, Nihon Koden) to a blood flow-indicating unit and recorded in a recorder. The model of cardiac incompetence was prepared in accordance with the following method. A continuous infusion of lactate Ringer solution (5 mL/body/min) having dissolved therein DL-propranolol (0.06 mg/mL) from a catheter inserted into the left femoral vein started diastolic overload. Thirty minutes later, the left anterior descendence (LAD) was ligated. […] At the time the cardiac output was reduced by at least 20% from that before the diastolic overload, the dose of methoxamine was reduced to 5 μg/kg/min and the infusion of lactate Ringer solution was reduced to 3 mL/kg/min, which was continued until the completion of experiments. Sixty to 90 minutes after the cardiac output was reduced by at least 20% and other hemodynamic parameters were stabled, test substance 2 was administered via a cannula indwelled in the duodenum. The control group received a vehicle. […]

removed liver [3] = assay: Bile amount and chloride ion in bile of removed perfused rat liver; settings: 10 μM in Krebs-Ringer perfusate, 30 minutes, Mean ± S.E.
Protocol: Male Wistar rats were used. The common bile duct of both the test and the control groups were catheterized to collect bile under pentobarbital sodium anesthesia. After the catheter was inserted and fixed in the portal vein, Krebs-Ringer solution (pH 7.4, 37° C.) comprising sodium taurocolate (30 μmol/1) saturated with 95% O2 and 5% CO2 was infused at a constant flow rate of 4.0 mL/min/g liver weight by means of peristaltic pump. The liver was removed under perfusion. For the test group, test substance 2 was added to the Krebs-Ringer solution. Thirty minutes after the perfusion, the amount of bile of both the test group and the control group was measured. Chloride ion concentration in the bile was also measured. The amount of bile at 30 minutes after the administration of test substance 2 or vehicle was shown as relative value (%) to the amount immediately before the administration.

removed liver [4] = assay: Organ preservation: bile flow after 16-hour cold storage and reperfusion of rat liver; settings: 30 minutes after reperfusion, Mean ± S.D.
Protocol: Male Wistar rats (weight: about 280 g) were anesthetized with intraperitoneal injection of pentobarbital sodium (50 mg/kg) and hepatic-portal region was exposed by abdominal midline incision. The common bile duct was cannulated and the portal stem was inserted with a 19 gauge Surflo® needle equipped with a three way stopcock. […] The liver was cut off from the tissues around it, removed outside the body and subjected to extracorporeal perfusion. The liver was subjected to a 15-minute pre-perfusion until its oxygen consumption achieved to a constant state. Then the perfusate was replaced with an organ preservative solution (University of Wisconsin solution; (U-W solution) at 4° C. Immediately after the replacement was completed, the liver connected with the three-way stopcock was removed from the perfusion cycle and the inlet was clamped. Then the liver was put in the preservative solution (U-W solution) at the same temperature and stored for 16 hours. After the 16-hour storage, the liver was reperfused with Krebs-Ringer Buffer. Thirty minutes after the reperfusion, the amount of bile flow was measured. (1) Effect of substance 2 added to the organ preservative solution (U-W solution) In the above perfusion protocol, test substance 2 at the concentration of 10 μM was added to the preservative solution (U-W solution). […]

male Wistar rats [5] = assay: Indomethacin induced ulcer model; format: in vivo, rat; settings: for Ulcer Coefficient: Mean ± S.E.
Protocol: Effects on acute ulcer was determined by means of water-immersion restraint stress induced ulcer model and indomethacin induced ulcer model.
Test substance 1 was orally administered to male Wistar rats (weight: 180-210 g) that had been fasted for 24 hours. In the water-immersion restraint stress induced ulcer model, 10 minutes after the oral administration of test substance 1, the rats were bound in a stress cage and immersed in water at 23° C. up to the level of their chest xiphisternums. Six hours after the immersion, the animals were killed by cervical dislocation. In the indomethacin induced ulcer model, immediately after the oral administration of test substance 1 or 2, indomethacin 10 mg/kg was orally administered. Five hours after the administration, the animals were killed by cervical dislocation. The stomachs removed from the animals were fixed with 1% formalin and then dissected along the greater curvatures. The major axis (mm) of each ulcer formed in the stomach was measured. The major axes of the ulcers in each animal were totaled, which were expressed as ulcer coefficients. Based on the ulcer coefficients of the control group and those of the groups receiving test substances, the ulcer inhibitory rates were calculated.

male Wistar rats [6] = assay: Taurocholic acid and trypsin induced pancreatitis, serum amylase; format: in vivo, rat; settings: 100 μg/kg subcutaneous
Protocol: Male Wistar rats (weight: 240-270 g) that had been fasted overnight were subjected to abdominal incision under pentobarbital sodium anesthesia. Then a mixed solution of 10% taurocholic acid 3 mL and 0.3% trypsin solution 0.3 mL was antidroicly infused from the bile duct duodenum opening to induce pancreatitis. Thirty minutes before, and 2 and 4 hours after the infusion of the mixed solution of taurocholic acid and trypsin, test substance 2 was subcutaneously administered. The control group received the vehicle. Six hours after the infusion of the mixed solution of taurocholic acid and trypsin, the blood was collected to measure the serum amylase activity.

CC[C@H](C)CC(F)(F)C(=O)CC[C@H]1[C@H](O)CC(=O)[C@@H]1CCCCCCC(=O)O [Test Sub. 2, 13,14-dihydro-15-keto-16,16-difluoro-18(S)-methyl-prostaglandin E1]
Chloride Ion Concentration in Bile (male Wistar rats [1]): 98.4 ± 1.8 mEq/L
Amount of Bile (male Wistar rats [1]; bile collected during one hour): 492 ± 36.7 µL
Ulcer Inhibitory Rate (male Wistar rats [2]; 10 μg/kg subcutaneous): 54.3%
Gross Ulcer Area (male Wistar rats [2]; 10 μg/kg subcutaneous): 15.2 ± 15.8 mm^2
Ulcer Inhibitory Rate (male Wistar rats [2]; 1000 μg/kg subcutaneous): 85.3%
Gross Ulcer Area (male Wistar rats [2]; 1000 μg/kg subcutaneous): 3.7 ± 8.3** mm^2
Relative Cardiac Output (Beagle dogs; 100 μg/kg intraduodenal): 108.7 ± 0.47 %
Relative Cardiac Output (Beagle dogs; 300 μg/kg intraduodenal): 117.8 ± 2.42 %
Chloride Ion Concentration in Bile (removed liver [3]): 0.353 ± 0.009 μM/min/g liver
Relative Amount of Bile (removed liver [3]; relative to amount immediately before administration): 126.2 ± 9.0 %
Amount of Bile Flow (removed liver [4]; 10 μM added to the perfusate during reperfusion): 2.67 ± 0.31 μL/min/g liver
Amount of Bile Flow (removed liver [4]; 10 μM added to the preservative solution (U-W solution)): 2.43 ± 0.10 μL/min/g liver
Ulcer Inhibitory Rate (male Wistar rats [5]; 1 μg/kg oral): 58.7%
Ulcer Coefficient (male Wistar rats [5]; 1 μg/kg oral): 35.7 ± 8.3
Ulcer Inhibitory Rate (male Wistar rats [5]; 3 μg/kg oral): 65.3%
Ulcer Coefficient (male Wistar rats [5]; 3 μg/kg oral): 30.0 ± 4.6
Ulcer Inhibitory Rate (male Wistar rats [5]; 10 μg/kg oral): 77.2%
Ulcer Coefficient (male Wistar rats [5]; 10 μg/kg oral): 19.7 ± 4.8
serum amylase (male Wistar rats [6]; 30 min before and 2 and 4 hours after infusion, blood at six hours, Mean ± S.E.): 2430 ± 417 IU/L
Inhibitory Rate (male Wistar rats [6]; serum amylase): 22.6%
